From ChEMBL document CHEMBL1201862, “PubChem BioAssay data set” (2004)
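Cells were grown in 96-well plates and exposed to each compound for 48 hours at five concentrations; endpoints were interpolated linearly between bracketing concentrations, or set to the highest concentration if not reached. Here, GI50 denotes the concentration required for 50% inhibition of growth.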 Active and inactive are the calls of the source. Rule as the data show it: active = GI50 up to about 1.1 µM and inactive = higher.

What was measured:
Assay in all cases: growth of human tumour cells (NCI), 48 h
786-0 = test system: 786-0
A498 = test system: A498
A549 = test system: A549
ACHN = test system: ACHN
CAKI-1 = test system: CAKI-1
CCRF-CEM = test system: CCRF-CEM
COLO 205 = test system: COLO 205
DLD-1 = test system: DLD-1
DMS-114 = test system: DMS-114
DMS-273 = test system: DMS-273
EKVX = test system: EKVX
HCC 2998 = test system: HCC 2998
HCT-116 = test system: HCT-116
HCT-15 = test system: HCT-15
HL-60 = test system: HL-60
HOP-18 = test system: HOP-18
HOP-62 = test system: HOP-62
IGROV-1 = test system: IGROV-1
K562 = test system: K562
KM-20L2 = test system: KM-20L2
KM12 = test system: KM12
LXFL 529 = test system: LXFL 529
M14 = test system: M14
M19-MEL = test system: M19-MEL
MOLT-4 = test system: MOLT-4
Malme-3M = test system: Malme-3M
NCI-H226 = test system: NCI-H226
NCI-H460 = test system: NCI-H460
NCI-H522 = test system: NCI-H522
OVCAR-3 = test system: OVCAR-3
OVCAR-4 = test system: OVCAR-4
OVCAR-8 = test system: OVCAR-8
RPMI-8226 = test system: RPMI-8226
RXF 631 = test system: RXF 631
SF-268 = test system: SF-268
SF-539 = test system: SF-539
SK-MEL-28 = test system: SK-MEL-28
SK-MEL-2 = test system: SK-MEL-2
SK-MEL-5 = test system: SK-MEL-5
SK-OV-3 = test system: SK-OV-3
SN12C = test system: SN12C
SNB-19 = test system: SNB-19
SNB-75 = test system: SNB-75
SNB-78 = test system: SNB-78
SR = test system: SR
SW-620 = test system: SW-620
TK-10 = test system: TK-10
U-251 = test system: U-251
UACC-257 = test system: UACC-257
UACC-62 = test system: UACC-62
UO-31 = test system: UO-31
HOP-92 = test system: HOP-92
HT-29 = test system: HT-29
LOX IMVI = test system: LOX IMVI
NCI-H23 = test system: NCI-H23
OVCAR-5 = test system: OVCAR-5
RXF 393 = test system: RXF 393
SF-295 = test system: SF-295
XF498 = test system: XF498

Q: Which results are given for `Cc1[nH]c(=O)nc(N/N=C/c2ccc(O)cc2)c1C(=O)Nc1ccc(Cl)cc1`?
A: GI50 (786-0): > 100 µM (inactive); GI50 (A498): > 100 µM (inactive); GI50 (A549): > 100 µM (inactive); GI50 (ACHN): > 100 µM (inactive); GI50 (CAKI-1): > 100 µM (inactive); GI50 (CCRF-CEM): > 100 µM (inactive); GI50 (COLO 205): > 100 µM (inactive); GI50 (DLD-1): > 100 µM (inactive); GI50 (DMS-114): > 100 µM (inactive); GI50 (DMS-273): > 100 µM (inactive); GI50 (EKVX): > 100 µM (inactive); GI50 (HCC 2998): > 100 µM (inactive); GI50 (HCT-116): > 100 µM (inactive); GI50 (HCT-15): > 100 µM; GI50 (HL-60): > 100 µM (inactive); GI50 (HOP-18): > 100 µM (inactive); GI50 (HOP-62): > 100 µM (inactive); GI50 (IGROV-1): > 100 µM (inactive); GI50 (K562): > 100 µM (inactive); GI50 (KM-20L2): > 100 µM (inactive); GI50 (KM12): > 100 µM (inactive); GI50 (LXFL 529): > 100 µM (inactive); GI50 (M14): 45.5 µM (inactive); GI50 (M19-MEL): > 100 µM (inactive); GI50 (MOLT-4): > 100 µM (inactive); GI50 (Malme-3M): > 100 µM (inactive); GI50 (NCI-H226): 65.2 µM (inactive); GI50 (NCI-H460): > 100 µM (inactive); GI50 (NCI-H522): > 100 µM (inactive); GI50 (OVCAR-3): > 100 µM (inactive); GI50 (OVCAR-4): > 100 µM (inactive); GI50 (OVCAR-8): > 100 µM (inactive); GI50 (RPMI-8226): > 100 µM (inactive); GI50 (RXF 631): > 100 µM (inactive); GI50 (SF-268): > 100 µM (inactive); GI50 (SF-539): > 100 µM (inactive); GI50 (SK-MEL-28): > 100 µM (inactive); GI50 (SK-MEL-2): > 100 µM (inactive); GI50 (SK-MEL-5): 88.1 µM (inactive); GI50 (SK-OV-3): > 100 µM (inactive); GI50 (SN12C): > 100 µM (inactive); GI50 (SNB-19): > 100 µM (inactive); GI50 (SNB-75): > 100 µM (inactive); GI50 (SNB-78): > 100 µM (inactive); GI50 (SR): > 100 µM (inactive); GI50 (SW-620): > 100 µM (inactive); GI50 (TK-10): > 100 µM (inactive); GI50 (U-251): > 100 µM (inactive); GI50 (UACC-257): > 100 µM (inactive); GI50 (UACC-62): > 100 µM (inactive); GI50 (UO-31): > 100 µM (inactive)

Q: With `Cc1ccc(NC(=O)C(=O)C(C(=O)/C=C/c2ccccc2)C2OC(=O)c3ccccc32)c(C)c1` (stereo not drawn) as the compound, how does the GI50 (786-0) read?
A: > 100 µM (inactive)

Q: What about the GI50 (A498) of the same compound?
A: > 100 µM (inactive)

Q: And the GI50 (A549)?
A: > 100 µM (inactive)

Q: What about the GI50 (ACHN) of the same compound?
A: > 100 µM (inactive)

Q: What about the GI50 (CAKI-1) of the same compound?
A: > 100 µM (inactive)

Q: What about the GI50 (CCRF-CEM) of the same compound?
A: > 100 µM (inactive)

Q: And the GI50 (COLO 205)?
A: > 100 µM (inactive)

Q: What about the GI50 (DLD-1) of the same compound?
A: > 100 µM (inactive)

Q: And the GI50 (DMS-114)?
A: > 100 µM (inactive)

Q: What about the GI50 (EKVX) of the same compound?
A: > 100 µM (inactive)

Q: What about the GI50 (HCC 2998) of the same compound?
A: > 100 µM (inactive)

Q: What about the GI50 (HCT-116) of the same compound?
A: > 100 µM (inactive)

Q: What about the GI50 (HCT-15) of the same compound?
A: > 100 µM

Q: What about the GI50 (HL-60) of the same compound?
A: > 100 µM (inactive)

Q: What about the GI50 (HOP-62) of the same compound?
A: > 100 µM (inactive)

Q: And the GI50 (HOP-92)?
A: > 100 µM (inactive)

Q: And the GI50 (HT-29)?
A: > 100 µM (inactive)

Q: And the GI50 (IGROV-1)?
A: > 100 µM (inactive)

Q: And the GI50 (K562)?
A: 85.7 µM (inactive)

Q: And the GI50 (KM-20L2)?
A: > 100 µM (inactive)

Q: What about the GI50 (KM12) of the same compound?
A: > 100 µM (inactive)

Q: What about the GI50 (LOX IMVI) of the same compound?
A: > 100 µM (inactive)

Q: What about the GI50 (LXFL 529) of the same compound?
A: > 100 µM (inactive)

Q: What about the GI50 (M14) of the same compound?
A: > 100 µM (inactive)

Q: What about the GI50 (M19-MEL) of the same compound?
A: > 100 µM (inactive)

Q: And the GI50 (MOLT-4)?
A: 77.4 µM (inactive)

Q: And the GI50 (Malme-3M)?
A: > 100 µM (inactive)

Q: What about the GI50 (NCI-H226) of the same compound?
A: > 100 µM (inactive)

Q: And the GI50 (NCI-H23)?
A: > 100 µM (inactive)

Q: What about the GI50 (NCI-H460) of the same compound?
A: > 100 µM (inactive)

Q: And the GI50 (NCI-H522)?
A: > 100 µM (inactive)

Q: And the GI50 (OVCAR-3)?
A: > 100 µM (inactive)

Q: What about the GI50 (OVCAR-4) of the same compound?
A: > 100 µM (inactive)

Q: And the GI50 (OVCAR-5)?
A: > 100 µM (inactive)

Q: What about the GI50 (RPMI-8226) of the same compound?
A: 60.4 µM (inactive)

Q: What about the GI50 (RXF 393) of the same compound?
A: > 100 µM (inactive)

Q: And the GI50 (RXF 631)?
A: > 100 µM (inactive)

Q: And the GI50 (SF-268)?
A: > 100 µM (inactive)

Q: What about the GI50 (SF-295) of the same compound?
A: > 100 µM (inactive)

Q: And the GI50 (SF-539)?
A: > 100 µM (inactive)

Q: And the GI50 (SK-MEL-28)?
A: > 100 µM (inactive)

Q: What about the GI50 (SK-MEL-5) of the same compound?
A: > 100 µM (inactive)

Q: What about the GI50 (SK-OV-3) of the same compound?
A: > 100 µM (inactive)

Q: And the GI50 (SN12C)?
A: > 100 µM (inactive)

Q: And the GI50 (SNB-19)?
A: > 100 µM (inactive)

Q: And the GI50 (SNB-75)?
A: > 100 µM (inactive)

Q: What about the GI50 (SNB-78) of the same compound?
A: > 100 µM (inactive)

Q: And the GI50 (SR)?
A: 45.4 µM (inactive)

Q: And the GI50 (SW-620)?
A: > 100 µM (inactive)

Q: What about the GI50 (TK-10) of the same compound?
A: > 100 µM (inactive)

Q: And the GI50 (U-251)?
A: > 100 µM (inactive)

Q: And the GI50 (UACC-257)?
A: > 100 µM (inactive)

Q: And the GI50 (UACC-62)?
A: > 100 µM (inactive)

Q: And the GI50 (UO-31)?
A: > 100 µM (inactive)

Q: And the GI50 (XF498)?
A: > 100 µM (inactive)

Q: Which results are given for `N#Cc1ccc2cc3c(cc2c1)OCO3`?
A: GI50 (786-0): > 100 µM (inactive); GI50 (A498): 28.4 µM (inactive); GI50 (ACHN): 59.3 µM (inactive); GI50 (CCRF-CEM): > 100 µM (inactive); GI50 (COLO 205): > 100 µM (inactive); GI50 (DLD-1): > 100 µM (inactive); GI50 (DMS-114): > 100 µM (inactive); GI50 (DMS-273): 95.5 µM (inactive); GI50 (HCC 2998): > 100 µM (inactive); GI50 (HCT-116): 91 µM (inactive); GI50 (HCT-15): > 100 µM; GI50 (HL-60): 77.1 µM (inactive); GI50 (HOP-62): > 100 µM (inactive); GI50 (HOP-92): 35.6 µM (inactive); GI50 (HT-29): > 100 µM (inactive); GI50 (IGROV-1): > 100 µM (inactive); GI50 (K562): 89.5 µM (inactive); GI50 (KM-20L2): > 100 µM (inactive); GI50 (KM12): > 100 µM (inactive); GI50 (LOX IMVI): > 100 µM (inactive); GI50 (LXFL 529): > 100 µM (inactive); GI50 (M14): > 100 µM (inactive); GI50 (M19-MEL): > 100 µM (inactive); GI50 (MOLT-4): 49.2 µM (inactive); GI50 (NCI-H226): 39.4 µM (inactive); GI50 (NCI-H23): > 100 µM (inactive); GI50 (NCI-H460): > 100 µM (inactive); GI50 (NCI-H522): > 100 µM (inactive); GI50 (OVCAR-3): > 100 µM (inactive); GI50 (OVCAR-4): > 100 µM (inactive); GI50 (OVCAR-5): 76.6 µM (inactive); GI50 (RPMI-8226): 54.5 µM (inactive); GI50 (RXF 393): 61.5 µM (inactive); GI50 (RXF 631): > 100 µM (inactive); GI50 (SF-268): > 100 µM (inactive); GI50 (SF-295): > 100 µM (inactive); GI50 (SF-539): 27 µM (inactive); GI50 (SK-MEL-28): > 100 µM (inactive); GI50 (SK-MEL-2): > 100 µM (inactive); GI50 (SK-OV-3): > 100 µM (inactive); GI50 (SN12C): > 100 µM (inactive); GI50 (SNB-19): 50.7 µM (inactive); GI50 (SNB-75): 26 µM (inactive); GI50 (SNB-78): > 100 µM (inactive); GI50 (U-251): 80.2 µM (inactive); GI50 (UACC-62): > 100 µM (inactive); GI50 (UO-31): 21.5 µM (inactive)
